# Assay results as given in ChEMBL document CHEMBL3868638, “Potential Treatment of Cognitive Impairment in Schizophrenia by Phosphodiesterase 2 (PDE2) Inhibitors” (ACS Med Chem Lett, 2017).
# Calls of active or inactive are those of the source. The calls are words filed in the database; no cut-off is given here.
# Species on record: Homo sapiens
# Experiment: (§1) Inhibition of human PDE2 using FAM-labeled cAMP as substrate after 60 mins in presence of cGMP by florescence polarization assay
row,inhibition,Structure (SMILES)
1,Active,COc1ccc(Cc2nc(O)c3c(C)nc([C@@H](CCCc4ccccc4)[C@@H](C)O)n3n2)cc1OC

# Target: not listed separately
# Experiment: as §1
row,Ki [pM],Structure (SMILES)
1,320 to 820,C[C@@H](NC(=O)c1cc(=O)[nH]c(N(C)C)n1)c1ccc(SC(F)(F)F)cc1
2,370 to 5100,CC(C)[C@@H](NC(=O)c1cc(=O)[nH]c(N(C)C)n1)c1ccc(SC(F)(F)F)cc1
3,1600,C[C@@H](NC(=O)c1cc(=O)[nH]c(N(C)C)n1)c1ccc(OC(F)(F)F)c(Cl)c1
4,690 to 5060,CC[C@@H](NC(=O)c1cc(=O)[nH]c(N(C)C)n1)c1ccc(SC(F)(F)F)cc1
5,900 to 960,CN(C)c1nc(C(=O)NC2(c3ccc(C(F)(F)F)c(F)c3)CC2)cc(=O)[nH]1
6,120,CN(C)c1nc(C(=O)N[C@@H](c2ccc(OC(F)(F)F)c(F)c2)C(C)(C)O)cc(=O)[nH]1
